How the values were obtained:
Assay type in all cases: functional
Pectinophora gossypiella [1] = experiment: Antifeedant activity against Pectinophora gossypiella second-instar larvae assessed as 50 % protection after 48 hrs
Pectinophora gossypiella [2] = experiment: Antifeedant activity against Pectinophora gossypiella second-instar larvae assessed as 90 % protection after 48 hrs
Spodoptera frugiperda [3] = experiment: Antifeedant activity against Spodoptera frugiperda second-instar larvae assessed as 90 % protection after 48 hrs
Spodoptera frugiperda [4] = experiment: Antifeedant activity against Spodoptera frugiperda second-instar larvae assessed as 50 % protection after 48 hrs

`CC(=O)O[C@H]1[C@H](OC(C)=O)[C@]2(C)C(=CC[C@H]2c2ccoc2)[C@]2(C)C(=O)C[C@H]3C(C)(C)O[C@H]4C[C@H](O)C(=O)[C@]43[C@@H]12` [ZUMKETOL] was tested, and the Activity (Pectinophora gossypiella [1]) was 0.5 µg/mL, the Activity (Pectinophora gossypiella [2]) was 2 µg/mL and the Activity (Spodoptera frugiperda [3]) was 16 µg/mL. The Activity (Spodoptera frugiperda [4]) was 3 µg/mL.
